{"source": "patent US20020155088A1", "about": "“Tumor treatment by using oligoaniline” (priority 2001, published 2002)", "key": {"[1]": {"test_system": "Fibrosarcoma cells (CCRC60037) and sarcoma 180 cells", "assay": "In vitro irradiation-induced cytotoxicity based on tumor cell viability (MTT/formazon)", "experimental": "An in vitro inhibition assay can be performed to preliminarily evaluate an oligoaniline's ability to inhibit the growth of tumor cells. For example, an oligoaniline solution is added to a pre-incubated cell suspension. Subsequently, the cell suspension is irradiated with fluorescence light, followed by further incubation. A 3-(4,5-dimethylthiazol-2-yl)-2,5-diphenyl-tetrazolium bromide solution is then added to the cell suspension to react with mitochrondrial dehydrogenase to form formazon, which is extracted with dimethyl sulfoxide (DMSO). The DMSO extract solution is immediately used for optical measurement to determine the formazon quantity, which correlates with the quantity of dehydrogenase or the relative number of the living cells.\nTwo types of tumor cells used in this study were prepared as follows: Fibrosarcoma cells (CCRC60037) and sarcoma 180 cells (obtained form Biochemical Institute of Chung Shan Medical and Dental College, Taiwan) were maintained and cultured in an cc-modified eagle medium (MEM) containing L-glutamine and phenol red, 10% fetal bovine serum, and antibiotics (100 units/mL of penicillin G and 100 μg/mL streptomycin sulfate). The cells were incubated in the dark in 95% humidified air plus 5% CO2, harvested by treatment with trypsin-EDTA, and then suspended in an α-MEM at the concentration of 1×10^4 cells/mL.\nThe cell suspension thus obtained was placed in wells of a 24-well plate (500 μL each) and pre-incubated at 37° C. for 24 hours. A16S solutions of various concentrations (0-10 μM) were then added to the wells (500 μL each). The wells were irradiated with fluorescence light (27 watts) for 0-60 minutes. The distance between the plate cover and the light source was 5-6 cm. After irradiation, the cells were further incubated for 48 hours. A solution of 3-(4,5-dimethylthiazol-2-yl)-2,5-diphenyl-tetrazolium bromide (0.5% in PBS; 100 μL each) was then added to each cell suspension, thereby causing the cells to produce formazon. After incubation at 37° C. for 3 hours, the suspension medium was discarded. Formazon formed in the cells from each well was extracted with DMSO (1.0 mL), and the DMSO extract solution was immediately measured for absorbance at […]. The absorbance directly correlated with the quantity of formazon, and thus with the quantity of dehydrogenase enzyme or the relative number of the living cells (i.e., viability). […] A maximal photodynamic cytotoxicity efficacy of >90% was obtained at an A16S concentration of 5.0-10.0 μM and an irradiation time of 60 minutes."}, "ferricytochrome C": {"test_system": "ferricytochrome C", "assay": "In vitro irradiation-induced superoxide generation (ferricytochrome C reduction)", "type": "biochemical", "conditions": "25 μM A16S aqueous solution, fluorescence light 27 watts, irradiation time 0, 30, 60, 90 minutes", "experimental": "The mixture thus obtained was added into wells of a 24-well plate, and exposed to fluorescence light source (27 watts) for 0-90 minutes. The distance between the plate cover and the light source was 5-6 cm. The reduction extent of ferricytochrome C was evaluated based on its absorbance at 550 nm, which corresponded to the increase of the quantity of reduced ferrocytochrome C."}, "[2]": {"test_system": "Murine sarcoma 180 cells (subcutaneous tumors)", "assay": "In vivo photodynamic therapy study in tumor-bearing mice", "design": "species or system male ICR mice", "conditions": "10 mg/kg intraperitoneal", "source_text": "Oligoanilines that show efficacy in preliminary studies can be further tested to confirm their efficacy by an in vivo assay on tumor-bearing mice. For example, see Chiang, et al. Proc. Electrochem. Soc., 1999, 99-12, 238-249. More specifically, a tumor-bearing mouse can be first administered with an oligoaniline to be tested in PBS close to the tumor site. The mouse is then kept in the dark while the oligoaniline is circulated to the tumor site. The tumor site is exposed by removing the hair on and around it, and then irradiated with a laser beam or other light source. After the irradiation, the growth of the tumor in the mouse is examined at different time intervals. The inhibitory effect can be evaluated by measuring the body weights of the mouse and the volumes of the tumor. After the mouse is sacrificed, the final body weight, the weights of various organs, and the final volume and weight of the tumor are measured; and blood is collected for biochemistry and hematology analyses. The data are evaluated used to determine the photodynamic therapeutic and other effects. […]\nThe mice in groups (1) and (2) were subsequently kept in the dark for 24 hours, and then anesthetized with avertine (0.3 mL/head). […] After the irradiation, the body weights and tumor volumes of the mice were measured every 5 days for 30 days. […]"}}, "note": "pIC50: −log10 of the molar value."}
{"substance": "Sulfobutylated Hexadecaaniline [A16S]", "values": [{"measurement": "cell viability", "setting": "[1]; A16S 0-10 μM, fluorescence light 27 watts, irradiation 0-60 minutes, 48 hours further incubation", "value": "decreased as the A16S dosage and irradiation time increased"}, {"measurement": "maximal photodynamic cytotoxicity efficacy", "setting": "[1]; A16S 5.0-10.0 μM, irradiation time 60 minutes", "value": "> 90", "unit": "%"}, {"measurement": "pIC50", "setting": "[1]; irradiation time 60 minutes", "value": 6.00}, {"measurement": "viable cells", "setting": "[1]; irradiation time 60 minutes, A16S concentration increased from 0 to 2.5 μM", "value": "a sharp loss of viable cells was observed"}, {"measurement": "cytotoxicity in the absence of light irradiation", "setting": "[1]; no irradiation, highest A16S concentration 10.0 μM", "value": "no cytotoxicity was observed"}, {"measurement": "amount of superoxide free radicals (ferrocytochrome C absorbance at 550 nm)", "setting": "ferricytochrome C", "value": "increased as the irradiation time increased"}, {"measurement": "average tumor weight relative to tumor control group", "setting": "[2]; laser 633 nm 100 J/cm^2, day 30", "value": "about 40%"}, {"measurement": "tumor growth rates versus tumor control group", "setting": "[2]; laser 633 nm 100 J/cm^2, entire 30 day study period", "value": "much lower"}]}
